The target of data set [1] is T1, recombinant human Meningioma Expressed Antigen 5 (MGEA5), also referred to as O-GlcNAcase (OGA) (Homo sapiens, UniProt O60502).
T1 construct: Full length OGA enzyme was purchased at OriGene (cat # TP322411); purchased OriGene TP322411
T1 sequence (O60502 1-916): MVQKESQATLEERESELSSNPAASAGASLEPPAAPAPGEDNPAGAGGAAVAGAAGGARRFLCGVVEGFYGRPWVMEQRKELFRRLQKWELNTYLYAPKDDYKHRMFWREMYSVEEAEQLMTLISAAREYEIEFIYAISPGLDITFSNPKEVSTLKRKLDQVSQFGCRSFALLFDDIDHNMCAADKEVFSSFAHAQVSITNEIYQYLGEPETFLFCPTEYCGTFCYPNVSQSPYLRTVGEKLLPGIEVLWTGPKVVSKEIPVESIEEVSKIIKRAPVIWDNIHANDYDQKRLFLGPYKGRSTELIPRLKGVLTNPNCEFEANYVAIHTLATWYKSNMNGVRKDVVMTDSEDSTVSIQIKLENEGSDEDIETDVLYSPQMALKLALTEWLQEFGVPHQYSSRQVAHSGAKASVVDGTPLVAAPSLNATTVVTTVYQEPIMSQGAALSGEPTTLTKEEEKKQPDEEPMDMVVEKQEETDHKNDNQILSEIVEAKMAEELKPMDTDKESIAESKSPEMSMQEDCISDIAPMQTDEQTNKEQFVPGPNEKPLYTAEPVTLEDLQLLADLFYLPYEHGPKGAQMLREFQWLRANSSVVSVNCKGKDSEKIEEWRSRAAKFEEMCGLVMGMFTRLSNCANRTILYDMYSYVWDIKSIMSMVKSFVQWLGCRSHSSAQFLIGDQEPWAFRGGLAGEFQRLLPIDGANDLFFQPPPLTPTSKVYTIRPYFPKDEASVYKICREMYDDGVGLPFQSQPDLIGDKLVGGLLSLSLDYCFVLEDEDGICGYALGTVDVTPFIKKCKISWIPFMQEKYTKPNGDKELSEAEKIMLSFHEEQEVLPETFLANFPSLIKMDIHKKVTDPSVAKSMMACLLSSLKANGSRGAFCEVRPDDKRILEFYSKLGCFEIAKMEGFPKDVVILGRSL
Put plainly: OGA biochemical assay: inhibition of FM-GlcNAc hydrolysis, fluorescence; protocol A (10 nM OGA, 1 h) or protocol B (2 nM OGA, 6 h). Conditions: for IC50: read-out: Enzymatic hOGA, pIC50 (converted). How it is done: The hydrolysis FM-GlcNAc (Marker Gene technologies, cat # M1485) results in the formation of ß-D-N-glucosamineacetate and fluorescein. The fluorescence of the latter can be measured at excitation wavelength 485 nm and emission wavelength 538 nm. An increase in enzyme activity results in an increase in fluorescence signal. Full length OGA enzyme was purchased at OriGene (cat # TP322411). The enzyme was stored in 25 mM Tris.HCl, pH 7.3, 100 mM glycine, 10% glycerol at −20° C. […] The assay was performed in 200 mM Citrate/phosphate buffer supplemented with 0.005% Tween-20. 35.6 g Na2HPO4 2 H2O (Sigma, # C0759) were dissolved in 1 L water to obtain a 200 mM solution. […] The buffer to stop the reaction consists of a 500 mM Carbonate buffer, pH 11.0. […] OGA was used at a 10 nM (protocol A) or 2 nM (protocol B) concentration and FM-GlcNAc at a 100 uM final concentration. Dilutions were prepared in assay buffer.
Plates were pre-incubated for 60 min at room temperature and then 2 μl FM-GlcNAc substrate mix added. […] Plates were briefly centrifuged for 1 min at 1000 rpm and incubate at room temperature for 1 h (10 nM OGA, protocol A) or 6 h (2 nM OGA, protocol B). To stop the reaction 5 μl STOP buffer were added and plates centrifuge again 1 min at 1000 rpm. Fluorescence was quantified in the Thermo Scientific Fluoroskan Ascent or the PerkinElmer EnVision with excitation wavelength 485 nm and emission wavelength 538 nm.
For analysis a best-fit curve is fitted by a minimum sum of squares method. From this an IC50 value and Hill coefficient was obtained. High control (no inhibitor) and low control (saturating concentrations of standard inhibitor) were used to define the minimum and maximum values.

In another data set the target is T2, OGA (Homo sapiens, UniProt O60502).
T2 construct: HEK293 cells inducible for P301L mutant human Tau (isoform 2N4R) were established at Janssen; endogenous in cells; host or cells: HEK293 cells inducible for P301L mutant human Tau (2N4R)
T2 sequence (O60502 1-916): T1 sequence (O60502 1-916)
Put plainly: OGA cellular assay: immunocytochemical detection of O-GlcNAcylated proteins in HEK293 cells inducible for P301L mutant human Tau. Conditions: for Emax: HEK293, read-out: Cellular Emax (%); for Cellular hOGA; pEC50 / Cellular Emax (%): HEK293 cells inducible for P301L mutant human Tau, 6 hours incubation; for Cellular Emax (%): maximum = Thiamet G 200 uM. Type of data set: cell-based. From the text: HEK293 cells inducible for P301L mutant human Tau (isoform 2N4R) were established at Janssen. Thiamet-G was used for both plate validation (high control) and as reference compound (reference EC50 assay validation). […] Inhibition of OGA will result in an increase of O-GlcNAcylated protein levels resulting in an increased signal in the experiment. […] ICC pictures are imaged with a Perkin Elmer Opera Phenix plate microscope and quantified with the provided software Perkin Elmer Harmony 4.1.
Cells were propagated in DMEM high Glucose (Sigma, # D5796) following standard procedures. […] At the day of compound test medium from assay plates was removed and replenished with 90 μl of fresh Assay Medium. 10 μl of compounds at a 10 fold final concentration were added to the wells. Plates were centrifuged shortly before incubation in the cell incubator for 6 hours. DMSO concentration was set to 0.2%. Medium is discarded by applying vacuum. For staining of cells medium was removed and cells washed once with 100 μl D-PBS (Sigma, # D8537). From next step onwards unless other stated assay volume was always 50 μl and incubation was performed without agitation and at room temperature. […] Before analysis samples were washed 2 times manually for 5 minutes in ICC base buffer.
Imaging is performed using Perkin Elmer Phenix Opera using a water 20× objective and recording 9 fields per well. Intensity readout at 488 nm is used as a measure of O-GlcNAcylation level of total proteins in wells. To assess potential toxicity of compounds nuclei were counted using the Hoechst staining. IC50-values are calculated using parametric non-linear regression model fitting. As a maximum inhibition Thiamet G at a 200 uM concentration is present on each plate. In addition, a concentration response of Thiamet G is calculated on each plate.

Setting [2] is: Enzymatic protocol A (10 nM OGA, 1 h).
[3] abbreviates: Enzymatic protocol B (2 nM OGA, 6 h).

One may read the Emax as the maximal effect, on the per cent scale that the assay sets. In general, melting point refers to the temperature of the solid-liquid transition. Broadly, the EC50 is the concentration that produces a half-maximal response. A high value points to a less potent agent.

Molecules are shown by their SMILES. Where two headings read alike, the source gives them in different places. Bounds are passed on as bounds.

The molecule `CC(=O)Nc1ncc(S(=O)(=O)N2CCCC(C)(c3cc(C(F)F)nc4ncnn34)C2)s1` (stereo not drawn) [Product 60] had a melting point of 238.12 °C. Also, in data set [1] (setting [2]), the Emax amounted to 98.7% and the IC50 was 1860 nM.

Molecule `CC(=O)Nc1ncc(S(=O)(=O)N2CCNC(c3cc(C)nc4ncnn34)C2)s1` (stereo not drawn) [Product 40] registered a melting point of 226.91 °C. Moreover, in data set [1] (setting [2]), the Emax came out at 100% and the IC50 was 16.6 nM.

Consider `CC(=O)Nc1ncc(CN2CCC(c3cc(C(F)(F)F)nc4ncnn34)C2)s1` (stereo not drawn) [Product 20], for which the melting point was 214.29 °C. Besides, in data set [1] (setting [3]), the Emax amounted to 93.7% and the IC50 is 603 nM.

On to `CC(=O)Nc1ncc(CN2CCCC(Nc3cc(C)nc4ncnn34)C2)s1` (stereo not drawn) [Product 51], for which the melting point came to 249.94 °C. Besides, in data set [1] (setting [3]), the Emax came out at 98.5% and the IC50 was 115 nM.

`CC(=O)Nc1ncc(S(=O)(=O)N2CCC[C@@H](c3cc(C(F)F)n4ncnc4n3)C2)s1` [Product 22] displayed a melting point of 263.43 °C. Further, in data set [1] (setting [2]), the Emax was 99.1% and the IC50 was 617 nM.

Take `Cc1cc([C@H]2CN([C@@H](C)c3ccc4c(c3)OCO4)CCN2)n2ncnc2n1` [Product 57]: the melting point is 161.31 °C. Besides, in data set [1] (setting [3]), the Emax was 93% and the IC50 is 617 nM.

Turning to `CC(=O)Nc1ncc(CN2CCOC(c3cc(C(F)(F)F)nc4ncnn34)C2)s1` (stereo not drawn) [Product 37], the melting point turned out to be 242.64 °C. In data set [1] (setting [3]), the Emax came to 79.6% and the IC50 was 2690 nM.

On to `CC(=O)Nc1ncc(S(=O)(=O)N2CCCC(c3cc(C(F)F)n4ccnc4n3)C2)s1` (racemic) [Product 23], for which the melting point came to 280.13 °C. Further, in data set [1] (setting [2]), the Emax was 102% and the IC50 is 295 nM.

`CC(=O)Nc1ncc(CN2CCOC(c3cc(C)nc4ncnn34)C2)s1` (stereo not drawn) [Product 35] gave a melting point of 264.26 °C. In addition, in data set [1] (setting [2]), the Emax worked out at 98.3% and the IC50 was 1580 nM. Also, in data set [1] (setting [3]), the Emax was found to be 86.7% and the IC50 is 1480 nM.

For the molecule `CC(=O)Nc1ncc(CN2CCCC(C)(c3cc(C(F)F)n4ncnc4n3)C2)s1` (stereo not drawn) [Product 62], the melting point came to 217.24 °C. In data set [1] (setting [3]), the Emax was 16.2% and the IC50 is more than 10000 nM.

The molecule `CC(=O)Nc1ncc(S(=O)(=O)N2CC[C@H](C)[C@@H](c3cc(C(F)F)nc4ncnn34)C2)s1` [Product 7] displayed a melting point of 264.57 °C. Besides, in data set [1] (setting [2]), the Emax was determined as 82.2% and the IC50 was 2750 nM.

In turn, `Cc1cc(C2CN(CC(=O)N3CCCC3)CCO2)n2ncnc2n1` (stereo not drawn) [Product 59] came in with a melting point of 127.35 °C. In addition, in data set [1] (setting [3]), the Emax is -1.34% and the IC50 was more than 10000 nM.

Turning to `CC(=O)Nc1ncc(S(=O)(=O)N2CCNC(c3cc(C(F)F)n4ncnc4n3)C2)s1` (stereo not drawn) [Product 43], the melting point was found to be 226.22 °C. Further, in data set [1] (setting [2]), the Emax was determined as 93.1% and the IC50 was 1860 nM.

`CC(=O)Nc1ncc(CN2CCNC(c3cc(C)nc4ncnn34)C2)s1` (stereo not drawn) [Product 42] displayed a melting point of 228.95 °C. Also, in data set [1] (setting [3]), the Emax was found to be 93.6% and the IC50 was 437 nM.

Take `CC(=O)Nc1ncc(CN2CCCC(c3cnc4cc[nH]c4c3)C2)s1` (stereo not drawn) [Product 106]: in data set [1] (setting [3]), the Emax came to 101% and the IC50 was 275 nM. Also, at OGA, the EC50 was 282 nM and the Emax was 71%.

In the case of `CC(=O)Nc1ncc(CN2CCC(Cc3cc(C)nc4ncnn34)C2)s1` (stereo not drawn) [Product 48], in data set [1] (setting [3]), the Emax came out at 103% and the IC50 is 1.74 nM. Besides, at OGA, the EC50 is 17 nM and the Emax was found to be 104%.

For `CC(=O)Nc1ncc(CN2CCCC(c3cccc4nccn34)C2)s1` (racemic) [Product 12], in data set [1] (setting [3]), the Emax amounted to 105% and the IC50 was 10.7 nM. Also, on OGA, a half-maximal response (EC50) required 20.9 nM and the Emax worked out at 103%.

As to `CC(=O)Nc1ncc(CN2CCC(Cc3cnc4ccn(C)c4c3)C2)s1` (stereo not drawn) [Product 69], in data set [1] (setting [3]), the Emax is 99.6% and the IC50 is 3.02 nM. At OGA, the EC50 is 23.4 nM and the Emax was found to be 108%.

As for `CC(=O)Nc1ncc(CN2CCC[C@H](c3ccnc4ccn(C)c34)C2)s1` (single isomer, unassigned) [Product 71], in data set [1] (setting [3]), the Emax was determined as 100% and the IC50 is 12.6 nM. Moreover, at OGA, the half-maximal effective concentration (EC50) was 87.1 nM and the Emax was found to be 79.2%.

On to `CC(=O)Nc1ncc(CN2CCC3(CC3)C(c3cc(C(F)F)nc4ncnn34)C2)s1` (stereo not drawn) [Product 64], for which, in data set [1] (setting [2]), the Emax amounted to 101% and the IC50 is 69.2 nM. On OGA, a half-maximal response (EC50) required 4790 nM and the Emax came to 84.5%.

Turning to `CC(=O)Nc1ncc(CN2CCC[C@H](c3cc4cc[nH]c4nc3C)C2)s1` (single isomer, unassigned) [Product 75], in data set [1] (setting [3]), the “Enzymatic Emax (%)” value is recorded as 100.81% and the “Enzymatic hOGA; pIC50” value was 8.57. Also, at OGA, the “Cellular hOGA; pEC50” value worked out at 7.90 and the “Cellular Emax (%)” value came out at 119.60%.

For `CC(=O)Nc1ncc(CN2CCCC(c3ccc4ccn(C)c4n3)C2)s1` (stereo not drawn) [Product 73], in data set [1] (setting [3]), the Emax came to 101% and the IC50 is 81.3 nM. In addition, on OGA, the response was half-maximal at 195 nM (EC50) and the Emax amounted to 87.2%.

`CC(=O)Nc1ncc(CN2CCCC(c3cc(C)nc4cc[nH]c34)C2)s1` (stereo not drawn) [Product 96]: in data set [1] (setting [3]), the “Enzymatic Emax (%)” value was found to be 99.16% and the “Enzymatic hOGA; pIC50” value is on record as 6.15. Moreover, at OGA, the “Cellular hOGA; pEC50” value turned out to be 6.40 and the “Cellular Emax (%)” value worked out at 70.38%.

Regarding `CC(=O)Nc1ncc(CN2CCCC(c3ccnc4cc[nH]c34)C2)s1` (racemic) [Product 15], in data set [1] (setting [3]), the Emax is 97.8% and the IC50 was 37.2 nM. Also, on OGA, the response was half-maximal at 12.3 nM (EC50) and the Emax amounted to 95.2%.
